Reference: US20180249707A1, “METHOD OF CONTROLLING ALGAE IN A BODY OF WATER” (priority 2013, published 2018)

Legend:
Microcystis aeruginosa = assay: 14-day flask exposure of Microcystis aeruginosa to BADA; format: cell-based; conditions: at concentrations comparable to Cutrine-Plus
Protocol: (§1) The experiment was conducted for 14 days and was initiated using 100 mL BG-11 medium contained in 200 mL flasks. […] The experiment was initiated by exposing the algae to 0.2, 0.4, 0.8, 1.0, 1.2, 1.4, 1.8, and 2.0 ppm (mg/L) as BADA, 0.5 Cu/L Cutrine®-Plus. The solution was heated in a water bath and diluted to 70 mg/L using warmed deionized water. Cutrine®-Plus stock solution was made at 50 mg/L using deionized water. Three replicates of each exposure concentration, along with three replicates of an untreated reference were tested. Each sample was maintained at room temperature with 12-hours of light and 12-h dark photoperiod. The chlorophyll a concentrations of Microcystis aeruginosa through the 14 day exposure after exposure to concentrations of BADA and Cutrine®-Plus. The results are shown in TABLES 5, and 6, which show the chlorophyll a concentration and the cell density, respectively.

Cladophora sp. = assay: 14-day flask exposure of Cladophora sp. to BADA; format: cell-based, C. kosterae
Protocol: The experiment was conducted for 14 days and was initiated using 100 mL BG-11 medium contained in 200 mL flasks. […] The solution was heated in a water bath and diluted to 70 mg/L using warmed deionized water. The concentration of DMSO was approximately 350 mg/L in the test beakers. Cutrine®-Plus stock solution was made at 50 mg/L using deionized water. Three replicates of each exposure concentration, along with three replicates of an untreated reference were tested. Each sample was maintained at room temperature with 12-hours of light and 12-h dark photoperiod. […]

M. aeruginosa = assay: Repeat exposure of M. aeruginosa to BADA at 25-200 ppb; format: cell-based
Protocol: as §1
Example 5 was repeated but using the N,N-bis-(3-aminopropyl) dodecylamine in the amounts of 200 parts per billion ((ppb) 0.2 ppm), 100 parts per billion ((ppb) 0.1 ppm), 75 parts per billion ((ppb) 0.075 ppm), 50 parts per billion ((ppb) 0.05 ppm), and 25 parts per billion ((ppb) 0.025 ppm). A control example was also repeated since the M. aeruginosa was from a different culture and the test were conducted at different times. The results are shown in TABLES 8, and 9, which show the chlorophyll a concentration and the cell density, respectively.

Which “effectiveness as an algaecide on Microcystis aeruginosa” value (Microcystis aeruginosa) does the source give for `CCCCCCCCCCCCN(CCCN)CCCN` [BADA, N,N-bis-(3-aminopropyl) dodecylamine] here?
Its value is “effective”.

And the “Extracted chlorphylll a concentrations of C. kosterae cultures” value (“Extracted chlorphylll a concentrations” for short) (Cladophora sp.; BADA 0.2 ppm, day 0 (initial))?
The value was 14.21 μg/sample.

And the “Extracted chlorphylll a concentrations” value (Cladophora sp.; BADA 0.2 ppm, day 14)?
The value was 11.01 μg/sample.

What about the “Extracted chlorphylll a concentrations” value (Cladophora sp.; BADA 0.4 ppm, day 0 (initial)) of the same compound?
Its value is 14.21 μg/sample.

What about the “Extracted chlorphylll a concentrations” value (Cladophora sp.; BADA 0.4 ppm, day 14) of the same compound?
The value was 13.15 μg/sample.

What about the “Extracted chlorphylll a concentrations” value (Cladophora sp.; BADA 0.8 ppm, day 0 (initial)) of the same compound?
The value was 14.21 μg/sample.

What about the “Extracted chlorphylll a concentrations” value (Cladophora sp.; BADA 0.8 ppm, day 14) of the same compound?
Its value is 12.54 μg/sample.

What about the “Extracted chlorphylll a concentrations” value (Cladophora sp.; BADA 1.0 ppm, day 0 (initial)) of the same compound?
The value was 14.21 μg/sample.

And the “Extracted chlorphylll a concentrations” value (Cladophora sp.; BADA 1.0 ppm, day 14)?
Its value is 13.26 μg/sample.

What about the “Extracted chlorphylll a concentrations” value (Cladophora sp.; BADA 1.2 ppm, day 0 (initial)) of the same compound?
Its value is 14.21 μg/sample.

What about the “Extracted chlorphylll a concentrations” value (Cladophora sp.; BADA 1.2 ppm, day 14) of the same compound?
Its value is 11.15 μg/sample.

And the “Extracted chlorphylll a concentrations” value (Cladophora sp.; BADA 1.4 ppm, day 0 (initial))?
Its value is 14.21 μg/sample.

What about the “Extracted chlorphylll a concentrations” value (Cladophora sp.; BADA 1.4 ppm, day 14) of the same compound?
Its value is 8.63 μg/sample.

What about the “Extracted chlorphylll a concentrations” value (Cladophora sp.; BADA 1.8 ppm, day 0 (initial)) of the same compound?
The value was 14.21 μg/sample.

What about the “Extracted chlorphylll a concentrations” value (Cladophora sp.; BADA 1.8 ppm, day 14) of the same compound?
Its value is 8.70 μg/sample.

What about the “Extracted chlorphylll a concentrations” value (Cladophora sp.; BADA 2.0 ppm, day 0 (initial)) of the same compound?
The value was 14.21 μg/sample.

And the “Extracted chlorphylll a concentrations” value (Cladophora sp.; BADA 2.0 ppm, day 14)?
Its value is 8.32 μg/sample.

And the “effectiveness as an algaecide on Cladophora sp.” value (Cladophora sp.; at concentrations comparable to Cutrine-Plus)?
The value was “effective”.

What about the “Cell density of M. aeruginosa cultures” value (M. aeruginosa; BADA 25 ppb, day 0 (initial)) of the same compound?
The value was 3.8E+05 cells/mL.

What about the “In vivo chlorophyll a concentrations of M. aeruginosa cultures” value (from here on “In vivo chlorophyll a concentrations”) (M. aeruginosa; BADA 25 ppb, day 0 (initial)) of the same compound?
Its value is 1.20 µg/L.

What about the “In vivo chlorophyll a concentrations” value (M. aeruginosa; BADA 25 ppb, day 1) of the same compound?
The value was 0.67 µg/L.

What about the “In vivo chlorophyll a concentrations” value (M. aeruginosa; BADA 25 ppb, day 5) of the same compound?
Its value is 0.64 µg/L.

What about the “In vivo chlorophyll a concentrations” value (M. aeruginosa; BADA 25 ppb, day 7) of the same compound?
Its value is 1.58 µg/L.

And the “In vivo chlorophyll a concentrations” value (M. aeruginosa; BADA 25 ppb, day 12)?
The value was 7.91 µg/L.

What about the “Cell density of M. aeruginosa cultures” value (M. aeruginosa; BADA 25 ppb, day 14) of the same compound?
Its value is 7.3E+06 cells/mL.

What about the “In vivo chlorophyll a concentrations” value (M. aeruginosa; BADA 25 ppb, day 14) of the same compound?
The value was 10.06 µg/L.

What about the “Cell density of M. aeruginosa cultures” value (M. aeruginosa; BADA 50 ppb, day 0 (initial)) of the same compound?
Its value is 3.8E+05 cells/mL.

What about the “In vivo chlorophyll a concentrations” value (M. aeruginosa; BADA 50 ppb, day 0 (initial)) of the same compound?
Its value is 1.20 µg/L.

What about the “In vivo chlorophyll a concentrations” value (M. aeruginosa; BADA 50 ppb, day 1) of the same compound?
Its value is 0.48 µg/L.

What about the “In vivo chlorophyll a concentrations” value (M. aeruginosa; BADA 50 ppb, day 5) of the same compound?
Its value is 0.04 µg/L.

What about the “In vivo chlorophyll a concentrations” value (M. aeruginosa; BADA 50 ppb, day 7) of the same compound?
The value was 0.06 µg/L.

What about the “In vivo chlorophyll a concentrations” value (M. aeruginosa; BADA 50 ppb, day 12) of the same compound?
The value was 0.71 µg/L.

And the “Cell density of M. aeruginosa cultures” value (M. aeruginosa; BADA 50 ppb, day 14)?
The value was 1.5E+06 cells/mL.

What about the “In vivo chlorophyll a concentrations” value (M. aeruginosa; BADA 50 ppb, day 14) of the same compound?
Its value is 1.93 µg/L.

What about the “Cell density of M. aeruginosa cultures” value (M. aeruginosa; BADA 75 ppb, day 0 (initial)) of the same compound?
Its value is 3.8E+05 cells/mL.

What about the “In vivo chlorophyll a concentrations” value (M. aeruginosa; BADA 75 ppb, day 0 (initial)) of the same compound?
Its value is 1.20 µg/L.

And the “In vivo chlorophyll a concentrations” value (M. aeruginosa; BADA 75 ppb, day 1)?
The value was 0.50 µg/L.

What about the “In vivo chlorophyll a concentrations” value (M. aeruginosa; BADA 75 ppb, day 5) of the same compound?
The value was 0.05 µg/L.

And the “In vivo chlorophyll a concentrations” value (M. aeruginosa; BADA 75 ppb, day 7)?
The value was 0.05 µg/L.

What about the “In vivo chlorophyll a concentrations” value (M. aeruginosa; BADA 75 ppb, day 12) of the same compound?
The value was 0.60 µg/L.

And the “Cell density of M. aeruginosa cultures” value (M. aeruginosa; BADA 75 ppb, day 14)?
The value was 1.4E+06 cells/mL.

What about the “In vivo chlorophyll a concentrations” value (M. aeruginosa; BADA 75 ppb, day 14) of the same compound?
The value was 1.77 µg/L.

What about the “Cell density of M. aeruginosa cultures” value (M. aeruginosa; BADA 100 ppb, day 0 (initial)) of the same compound?
The value was 3.8E+05 cells/mL.

What about the “In vivo chlorophyll a concentrations” value (M. aeruginosa; BADA 100 ppb, day 0 (initial)) of the same compound?
The value was 1.20 µg/L.

What about the “In vivo chlorophyll a concentrations” value (M. aeruginosa; BADA 100 ppb, day 1) of the same compound?
Its value is 0.55 µg/L.

What about the “In vivo chlorophyll a concentrations” value (M. aeruginosa; BADA 100 ppb, day 5) of the same compound?
The value was 0.03 µg/L.

And the “In vivo chlorophyll a concentrations” value (M. aeruginosa; BADA 100 ppb, day 7)?
Its value is 0.03 µg/L.

And the “In vivo chlorophyll a concentrations” value (M. aeruginosa; BADA 100 ppb, day 12)?
Its value is 0.31 µg/L.

And the “Cell density of M. aeruginosa cultures” value (M. aeruginosa; BADA 100 ppb, day 14)?
The value was 8.7E+05 cells/mL.

And the “In vivo chlorophyll a concentrations” value (M. aeruginosa; BADA 100 ppb, day 14)?
The value was 0.98 µg/L.

What about the “Cell density of M. aeruginosa cultures” value (M. aeruginosa; BADA 200 ppb, day 0 (initial)) of the same compound?
The value was 3.8E+05 cells/mL.

What about the “In vivo chlorophyll a concentrations” value (M. aeruginosa; BADA 200 ppb, day 0 (initial)) of the same compound?
Its value is 1.20 µg/L.

And the “In vivo chlorophyll a concentrations” value (M. aeruginosa; BADA 200 ppb, day 1)?
The value was 0.50 µg/L.

What about the “In vivo chlorophyll a concentrations” value (M. aeruginosa; BADA 200 ppb, day 5) of the same compound?
Its value is 0.03 µg/L.

What about the “In vivo chlorophyll a concentrations” value (M. aeruginosa; BADA 200 ppb, day 7) of the same compound?
The value was 0.02 µg/L.

And the “In vivo chlorophyll a concentrations” value (M. aeruginosa; BADA 200 ppb, day 12)?
Its value is 0.05 µg/L.

And the “Cell density of M. aeruginosa cultures” value (M. aeruginosa; BADA 200 ppb, day 14)?
Its value is 1.4E+05 cells/mL.

What about the “In vivo chlorophyll a concentrations” value (M. aeruginosa; BADA 200 ppb, day 14) of the same compound?
The value was 0.16 µg/L.
